In paper PMC2630805, “Anticancer Alkaloid Lamellarins Inhibit Protein Kinases” (Marine Drugs, 2008):

Tests used:
CDK1/cyclin B = CDK1/cyclin B kinase assay (histone H1, P81 phosphocellulose); type: biochemical, starfish (Marthasterias glacialis); details: 15 μM ATP; cell '− (x)' = no inhibitory activity detected, x = highest concentration tested
Procedure: ATP (3,000 Ci/mmol; 1 mCi/ml) in a final volume of 30 μl. […] The wet filters were counted in the presence of 1 ml ACS (Amersham) scintillation fluid.

GSK-3α/ß = test: GSK-3α/β kinase assay (GS-1 substrate); type: biochemical, porcine; details: 15 μM ATP; cell '− (x)' = no inhibitory activity detected, x = highest concentration tested
Excerpt: GSK-3 α/β was purified from porcine brain by affinity chromatography on immobilized axin [39].

PIM 1 = PIM 1 (Homo sapiens, UniProt P11309); test: PIM1 kinase assay (histone H1); type: biochemical
CK1 = CK1 kinase assay (CKS peptide); type: biochemical, porcine; details: 15 μM ATP; cell '− (x)' = no inhibitory activity detected, x = highest concentration tested
Procedure: CK1 was purified from porcine brain by affinity chromatography on immobilized axin fragment. The mixture of native CK1 isoforms (essentially CK1δ and CK1ɛ) was assayed in three-fold diluted buffer C, using 25 μM CKS peptide, a CK1 selective substrate (RRKHAAIGpSAYSITA, synthesized by Millegen (Labège, France). Assays were performed for 30 min. at 30°C, as described for GSK-3.

Abl kinase (h) = Abl kinase (h) (Homo sapiens, UniProt P00519); test: CEREP Kinase Selectivity Panel; type: biochemical; details: 10 μM lamellarin N
Brk (h) = Brk (h) (Homo sapiens, UniProt Q13882); test: CEREP Kinase Selectivity Panel; type: biochemical; details: 10 μM lamellarin N
CaMK2α (h) = CaMK2α (h) (Homo sapiens, UniProt Q9UQM7); test: CEREP Kinase Selectivity Panel; type: biochemical; details: 10 μM lamellarin N
CaMK4 (h) = CaMK4 (h) (Homo sapiens, UniProt Q16566); test: CEREP Kinase Selectivity Panel; type: biochemical; details: 10 μM lamellarin N
CDC2/CDK1 (h) (cycB) = CDC2/CDK1 (h) (cycB) (Homo sapiens, UniProt P06493); test: CEREP Kinase Selectivity Panel; type: biochemical; details: 10 μM lamellarin N
CDK2 (h) (cycE) = CDK2 (h) (cycE) (Homo sapiens, UniProt P24941); test: CEREP Kinase Selectivity Panel; type: biochemical; details: 10 μM lamellarin N
CHK2 (h) = CHK2 (h) (Homo sapiens, UniProt O96017); test: CEREP Kinase Selectivity Panel; type: biochemical; details: 10 μM lamellarin N
EphB4 kinase (h) = EphB4 kinase (h) (Homo sapiens, UniProt P54760); test: CEREP Kinase Selectivity Panel; type: biochemical; details: 10 μM lamellarin N
ERK2 (h) (P42mapk) = ERK2 (h) (P42mapk) (Homo sapiens, UniProt P28482); test: CEREP Kinase Selectivity Panel; type: biochemical; details: 10 μM lamellarin N
FGFR4 kinase (h) = FGFR4 kinase (h) (Homo sapiens, UniProt P22455); test: CEREP Kinase Selectivity Panel; type: biochemical; details: 10 μM lamellarin N
FLT-3 kinase (h) = FLT-3 kinase (h) (Homo sapiens, UniProt P36888); test: CEREP Kinase Selectivity Panel; type: biochemical; details: 10 μM lamellarin N
Fyn kinase (h) = Fyn kinase (h) (Homo sapiens, UniProt P06241); test: CEREP Kinase Selectivity Panel; type: biochemical; details: 10 μM lamellarin N
IRK (h) (InsR) = IRK (h) (InsR) (Homo sapiens, UniProt P06213); test: CEREP Kinase Selectivity Panel; type: biochemical; details: 10 μM lamellarin N
JNK 2 (h) = JNK 2 (h) (Homo sapiens, UniProt P45984); test: CEREP Kinase Selectivity Panel; type: biochemical; details: 10 μM lamellarin N
KDR kinase (h) (VEGFR2) = KDR kinase (h) (VEGFR2) (Homo sapiens, UniProt P35968); test: CEREP Kinase Selectivity Panel; type: biochemical; details: 10 μM lamellarin N
Lck kinase (h) = Lck kinase (h) (Homo sapiens, UniProt P06239); test: CEREP Kinase Selectivity Panel; type: biochemical; details: 10 μM lamellarin N
Lyn kinase (h) = Lyn kinase (h) (Homo sapiens, UniProt P07948); test: CEREP Kinase Selectivity Panel; type: biochemical; details: 10 μM lamellarin N
MAPKAPK2 (h) = MAPKAPK2 (h) (Homo sapiens, UniProt P49137); test: CEREP Kinase Selectivity Panel; type: biochemical; details: 10 μM lamellarin N
MEK1/MAP2K1 (h) = MEK1/MAP2K1 (h) (Homo sapiens, UniProt Q02750); test: CEREP Kinase Selectivity Panel; type: biochemical; details: 10 μM lamellarin N
p38δ kinase (h) = p38δ kinase (h) (Homo sapiens, UniProt O15264); test: CEREP Kinase Selectivity Panel; type: biochemical; details: 10 μM lamellarin N
PDGFRβ kinase (h) = PDGFRβ kinase (h) (Homo sapiens, UniProt P09619); test: CEREP Kinase Selectivity Panel; type: biochemical; details: 10 μM lamellarin N
PKA (h) = PKA (h) (Homo sapiens, UniProt P17612); test: CEREP Kinase Selectivity Panel; type: biochemical; details: 10 μM lamellarin N
PKCα (h) = PKCα (h) (Homo sapiens, UniProt P17252); test: CEREP Kinase Selectivity Panel; type: biochemical; details: 10 μM lamellarin N
PKCγ (h) = PKCγ (h) (Homo sapiens, UniProt P05129); test: CEREP Kinase Selectivity Panel; type: biochemical; details: 10 μM lamellarin N
Ret kinase (h) = Ret kinase (h) (Homo sapiens, UniProt P07949); test: CEREP Kinase Selectivity Panel; type: biochemical; details: 10 μM lamellarin N
ROCK2 (h) = ROCK2 (h) (Homo sapiens, UniProt O75116); test: CEREP Kinase Selectivity Panel; type: biochemical; details: 10 μM lamellarin N
RSK2 (h) = RSK2 (h) (Homo sapiens, UniProt P51812); test: CEREP Kinase Selectivity Panel; type: biochemical; details: 10 μM lamellarin N
Src kinase (h) = Src kinase (h) (Homo sapiens, UniProt P12931); test: CEREP Kinase Selectivity Panel; type: biochemical; details: 10 μM lamellarin N
Syk (h) = Syk (h) (Homo sapiens, UniProt P43405); test: CEREP Kinase Selectivity Panel; type: biochemical; details: 10 μM lamellarin N
TRKA (h) = TRKA (h) (Homo sapiens, UniProt P04629); test: CEREP Kinase Selectivity Panel; type: biochemical; details: 10 μM lamellarin N
[1] = tested on: PARP, p53, p21^CIP1, Mcl-1 in SH-SY5Y cells; type: cell-based, human
Procedure: SH-SY5Y cells treated at time 0 with 1 μM lamellarin N. Cells were harvested at different time-points and protein extracted for SDS-PAGE followed by Western blot analysis using antibodies directed against PARP, p53, p21^CIP1, or Mcl-1, as described in the materials and methods section. β-actin was used as loading control. “Ctrl” denoted untreated sample after 10 hours.
At given time points and lamellarin doses, SH-SY5Y cells were harvested in phosphate buffered saline (PBS) with commercially available protease inhibitors (Roche, 11836145001). Cells were homogenized by sonication in homogenization buffer supplemented with 0.1% NP-40 and protease inhibitors. The homogenization buffer consist of: 25mM MOPS, 15mM EGTA, 15mM MgCl2, 1mM sodium orthovanadate, 1mM sodium fluoride, 60mM β-glycerophosphate, 2mM DTT, 15mM p-nitrophenylphosphate, and 1mM phenyl phosphate-di-sodium salt (all reagents supplied by Sigma). Sonication retrieved proteins. Cellular proteins were subjected to electrophoresis in SDS 10% polyacrylamide gels and transferred to a PVDF membrane (Invitrogen). Membranes were incubated with primary antibodies directed against p53 (Santa Cruz Biotech, sc-263) (1:1000), p21^CIP1 (Calbiochem, OP64) (1:1000) or poly (ADP-ribose) polymerase (PARP) (Santa Cruz Biotech, sc-7150) (1:500). Appropriate secondary antibodies conjugated to horseradish peroxidase (Biorad) were added to visualize the proteins using the ECL detection system.

[2] = tested on: CDK1/cyclin B, CDK5/p25, GSK-3α/ß, PIM-1, DYRK1A, CK1; test: Kinase assay panel, structure/activity comparison; type: biochemical; details: transposition of substitutions at R3 and R4 of lamellarin D
Procedure: All compounds were run on our kinase assay panel comprising CDK1/cyclin B, CDK5/p25, GSK-3α/ß, PIM-1, DYRK1A, CK1.
Kinase activities were assayed in buffer A (10 mM MgCl2, 1 mM EGTA, 1 mM DTT, 25 mM Tris-HCl pH 7.5, 50 μg heparin/ml) or C (60 mM β-glycerophosphate, 15 mM p-nitrophenyl phosphate, 25 mM MOPS (pH 7.2), 5 mM EGTA, 15 mM MgCl2, 1 mM dithiothreitol, 1 mM sodium vanadate, 1 mM phenylphosphate, 0.1 % Nonidet P-40), at 30°C, at a final ATP concentration of 15 μM. Blank values were subtracted and activities calculated as pmoles of phosphate incorporated during a 30 min. incubation. The activities were expressed in % of the maximal activity, i.e. in the absence of inhibitors. Controls were performed with appropriate dilutions of dimethylsulfoxide. Unless otherwise stated, the P81 phosphocellulose assay was used.

CDK5/p25 = CDK5/p25 (Homo sapiens, UniProt Q00535); test: CDK5/p25 kinase assay (histone H1)
Chain of CDK5/p25 (Q00535 whole entry): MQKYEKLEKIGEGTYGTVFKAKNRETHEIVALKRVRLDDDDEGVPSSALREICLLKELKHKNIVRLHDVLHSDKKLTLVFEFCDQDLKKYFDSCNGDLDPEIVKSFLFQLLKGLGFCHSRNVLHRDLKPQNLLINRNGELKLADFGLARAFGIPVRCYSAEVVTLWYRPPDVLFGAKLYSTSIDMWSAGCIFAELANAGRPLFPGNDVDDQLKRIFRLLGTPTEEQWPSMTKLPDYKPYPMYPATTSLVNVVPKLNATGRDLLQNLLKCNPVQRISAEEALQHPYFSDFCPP
Chain of CDK5/p25 (Q15078 99-307 partner limits assumed): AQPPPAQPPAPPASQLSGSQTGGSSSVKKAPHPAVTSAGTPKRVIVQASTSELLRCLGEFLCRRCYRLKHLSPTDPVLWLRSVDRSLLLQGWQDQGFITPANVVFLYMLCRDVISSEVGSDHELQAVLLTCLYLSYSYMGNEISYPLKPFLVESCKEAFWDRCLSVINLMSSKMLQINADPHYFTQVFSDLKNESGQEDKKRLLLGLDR
Procedure: Blank values were subtracted and activities calculated as pmoles of phosphate incorporated during a 30 min. incubation. The activities were expressed in % of the maximal activity, i.e. in the absence of inhibitors. Controls were performed with appropriate dilutions of dimethylsulfoxide. Unless otherwise stated, the P81 phosphocellulose assay was used.
Its activity was assayed with histone H1 in buffer C as described for CDK1/cyclin B.

Chain of Lyn kinase (h) (P07948 whole entry): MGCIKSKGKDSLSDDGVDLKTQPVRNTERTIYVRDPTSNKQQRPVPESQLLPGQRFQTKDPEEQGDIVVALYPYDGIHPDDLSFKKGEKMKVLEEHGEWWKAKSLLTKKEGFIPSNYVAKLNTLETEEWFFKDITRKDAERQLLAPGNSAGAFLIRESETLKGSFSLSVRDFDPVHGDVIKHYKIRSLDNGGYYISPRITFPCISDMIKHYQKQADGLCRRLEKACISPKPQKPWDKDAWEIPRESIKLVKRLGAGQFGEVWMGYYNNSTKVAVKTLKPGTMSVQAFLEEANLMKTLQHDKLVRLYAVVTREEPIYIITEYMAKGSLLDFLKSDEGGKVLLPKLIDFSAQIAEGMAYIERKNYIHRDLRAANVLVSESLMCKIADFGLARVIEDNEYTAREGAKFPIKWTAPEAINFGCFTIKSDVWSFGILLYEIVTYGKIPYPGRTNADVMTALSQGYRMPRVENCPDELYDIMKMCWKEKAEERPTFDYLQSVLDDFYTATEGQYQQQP
Chain of TRKA (h) (P04629 33-796): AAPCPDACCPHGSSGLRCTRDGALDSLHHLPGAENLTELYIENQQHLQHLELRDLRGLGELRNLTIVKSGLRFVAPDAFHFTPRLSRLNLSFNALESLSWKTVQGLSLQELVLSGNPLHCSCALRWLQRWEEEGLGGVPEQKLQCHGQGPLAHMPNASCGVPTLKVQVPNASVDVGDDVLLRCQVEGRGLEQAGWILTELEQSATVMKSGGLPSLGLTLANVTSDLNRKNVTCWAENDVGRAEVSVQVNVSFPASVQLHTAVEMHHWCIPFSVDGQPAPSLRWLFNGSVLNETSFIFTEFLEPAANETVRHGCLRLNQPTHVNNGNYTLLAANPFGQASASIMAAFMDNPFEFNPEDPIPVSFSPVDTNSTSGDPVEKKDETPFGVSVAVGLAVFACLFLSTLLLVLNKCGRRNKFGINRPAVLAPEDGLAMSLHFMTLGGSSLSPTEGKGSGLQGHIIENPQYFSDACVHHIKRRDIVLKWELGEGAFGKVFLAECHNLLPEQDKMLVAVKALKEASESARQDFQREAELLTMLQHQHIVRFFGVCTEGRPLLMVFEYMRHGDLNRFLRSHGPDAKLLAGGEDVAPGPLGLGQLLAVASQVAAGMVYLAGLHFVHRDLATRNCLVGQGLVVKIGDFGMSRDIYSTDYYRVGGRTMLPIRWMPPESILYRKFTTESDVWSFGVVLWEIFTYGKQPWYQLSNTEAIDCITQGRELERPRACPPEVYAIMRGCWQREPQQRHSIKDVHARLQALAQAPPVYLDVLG
Chain of ROCK2 (h) (O75116 whole entry): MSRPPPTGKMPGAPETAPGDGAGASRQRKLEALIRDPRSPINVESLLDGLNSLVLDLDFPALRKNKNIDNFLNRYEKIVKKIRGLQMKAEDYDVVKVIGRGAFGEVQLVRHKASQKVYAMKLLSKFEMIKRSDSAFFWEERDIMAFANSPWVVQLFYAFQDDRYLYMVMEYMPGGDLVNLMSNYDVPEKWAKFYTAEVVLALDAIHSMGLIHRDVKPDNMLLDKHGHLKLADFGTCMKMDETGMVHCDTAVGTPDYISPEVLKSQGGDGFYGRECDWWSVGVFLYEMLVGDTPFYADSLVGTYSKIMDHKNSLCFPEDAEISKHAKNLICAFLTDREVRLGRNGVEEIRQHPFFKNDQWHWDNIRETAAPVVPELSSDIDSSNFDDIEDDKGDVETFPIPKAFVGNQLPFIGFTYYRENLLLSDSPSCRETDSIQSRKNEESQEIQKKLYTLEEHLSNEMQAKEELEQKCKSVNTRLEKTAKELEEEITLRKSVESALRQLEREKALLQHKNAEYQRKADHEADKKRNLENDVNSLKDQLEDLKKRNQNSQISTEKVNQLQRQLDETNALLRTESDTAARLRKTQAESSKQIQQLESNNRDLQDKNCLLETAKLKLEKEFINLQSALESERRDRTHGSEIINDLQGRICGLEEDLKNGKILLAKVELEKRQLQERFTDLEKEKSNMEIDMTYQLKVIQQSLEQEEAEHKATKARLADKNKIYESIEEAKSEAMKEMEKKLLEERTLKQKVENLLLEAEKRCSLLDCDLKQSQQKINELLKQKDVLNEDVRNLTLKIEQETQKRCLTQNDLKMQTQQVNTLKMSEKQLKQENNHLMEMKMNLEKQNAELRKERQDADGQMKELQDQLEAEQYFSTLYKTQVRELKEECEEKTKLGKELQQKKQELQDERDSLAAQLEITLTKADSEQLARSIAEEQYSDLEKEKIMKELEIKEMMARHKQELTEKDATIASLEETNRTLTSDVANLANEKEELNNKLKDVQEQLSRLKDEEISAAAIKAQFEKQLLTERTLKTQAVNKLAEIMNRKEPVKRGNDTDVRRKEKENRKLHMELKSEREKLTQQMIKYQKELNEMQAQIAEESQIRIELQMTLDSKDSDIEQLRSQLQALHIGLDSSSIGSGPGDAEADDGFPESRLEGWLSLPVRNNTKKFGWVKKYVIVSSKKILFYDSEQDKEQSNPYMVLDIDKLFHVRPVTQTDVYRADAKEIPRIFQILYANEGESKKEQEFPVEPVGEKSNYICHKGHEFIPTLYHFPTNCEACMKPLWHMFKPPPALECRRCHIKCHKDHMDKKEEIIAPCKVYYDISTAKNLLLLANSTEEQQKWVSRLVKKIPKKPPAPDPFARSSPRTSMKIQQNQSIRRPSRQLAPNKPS
Chain of PDGFRβ kinase (h) (P09619 33-1106): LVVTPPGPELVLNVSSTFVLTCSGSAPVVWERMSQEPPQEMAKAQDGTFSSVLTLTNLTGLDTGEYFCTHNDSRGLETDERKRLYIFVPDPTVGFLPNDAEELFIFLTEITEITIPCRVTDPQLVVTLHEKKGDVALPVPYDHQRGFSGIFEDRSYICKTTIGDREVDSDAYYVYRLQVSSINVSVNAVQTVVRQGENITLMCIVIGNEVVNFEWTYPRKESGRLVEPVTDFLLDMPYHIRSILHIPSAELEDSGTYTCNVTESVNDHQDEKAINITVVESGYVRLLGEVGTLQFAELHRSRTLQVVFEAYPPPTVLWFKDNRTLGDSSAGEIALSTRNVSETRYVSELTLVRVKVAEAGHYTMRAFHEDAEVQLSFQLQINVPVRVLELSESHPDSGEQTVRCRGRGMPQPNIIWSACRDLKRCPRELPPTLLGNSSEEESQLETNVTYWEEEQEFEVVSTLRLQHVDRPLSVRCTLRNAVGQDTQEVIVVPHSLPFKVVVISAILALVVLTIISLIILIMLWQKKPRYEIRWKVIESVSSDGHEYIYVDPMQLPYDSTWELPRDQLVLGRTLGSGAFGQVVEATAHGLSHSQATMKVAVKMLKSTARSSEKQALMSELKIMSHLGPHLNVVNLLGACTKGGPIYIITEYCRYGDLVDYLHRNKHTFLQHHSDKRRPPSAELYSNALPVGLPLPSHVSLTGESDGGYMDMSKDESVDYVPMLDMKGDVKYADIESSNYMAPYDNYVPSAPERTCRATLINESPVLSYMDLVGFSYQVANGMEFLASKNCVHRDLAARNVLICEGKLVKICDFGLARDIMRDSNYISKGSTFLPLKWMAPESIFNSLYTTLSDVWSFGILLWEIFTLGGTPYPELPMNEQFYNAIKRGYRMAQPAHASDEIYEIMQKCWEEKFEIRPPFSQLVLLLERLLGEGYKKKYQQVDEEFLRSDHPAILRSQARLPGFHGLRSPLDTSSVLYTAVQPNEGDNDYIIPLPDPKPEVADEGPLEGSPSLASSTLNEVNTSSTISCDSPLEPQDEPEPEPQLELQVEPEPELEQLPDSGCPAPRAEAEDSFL
Chain of MEK1/MAP2K1 (h) (Q02750 whole entry): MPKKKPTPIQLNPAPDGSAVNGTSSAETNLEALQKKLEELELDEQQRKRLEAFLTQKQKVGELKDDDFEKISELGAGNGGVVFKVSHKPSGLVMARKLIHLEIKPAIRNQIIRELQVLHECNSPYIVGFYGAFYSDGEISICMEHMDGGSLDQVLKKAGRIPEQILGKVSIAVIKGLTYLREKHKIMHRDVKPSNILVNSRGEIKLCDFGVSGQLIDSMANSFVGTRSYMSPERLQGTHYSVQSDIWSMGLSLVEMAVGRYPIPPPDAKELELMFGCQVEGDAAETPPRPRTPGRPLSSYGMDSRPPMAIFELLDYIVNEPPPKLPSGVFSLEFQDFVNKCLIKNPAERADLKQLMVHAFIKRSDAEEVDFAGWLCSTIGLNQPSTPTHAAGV
Chain of PIM 1 (P11309 whole entry, species assumed): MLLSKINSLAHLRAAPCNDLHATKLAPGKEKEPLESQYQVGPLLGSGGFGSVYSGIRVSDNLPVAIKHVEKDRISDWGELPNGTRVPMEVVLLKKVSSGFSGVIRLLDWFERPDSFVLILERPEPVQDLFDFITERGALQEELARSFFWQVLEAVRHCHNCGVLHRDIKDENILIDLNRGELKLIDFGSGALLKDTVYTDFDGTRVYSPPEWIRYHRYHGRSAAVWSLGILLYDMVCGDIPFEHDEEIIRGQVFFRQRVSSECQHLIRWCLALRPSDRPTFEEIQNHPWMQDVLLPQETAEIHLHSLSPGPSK

`COc1ccc(-c2c3c4cc(OC)c(O)cc4oc(=O)c3n3ccc4cc(O)c(OC)cc4c23)cc1O` [Compound 6, lamellarin N] gave an IC50 (CDK1/cyclin B) of 70 nM, an IC50 (GSK-3α/ß) of 5 nM and an IC50 (PIM 1) of 55 nM. For the same molecule, the IC50 (CK1) was greater than 10 µM, the “Activity (% of control)” value (Abl kinase (h)) was 61.4 % of control and the “Activity (% of control)” value (Brk (h)) was 72.8 % of control. For the same molecule, the “Activity (% of control)” value (CaMK2α (h)) was 38.2 % of control, the “Activity (% of control)” value (CaMK4 (h)) was 89.9 % of control and the “Activity (% of control)” value (CDC2/CDK1 (h) (cycB)) was 20.4 % of control. The “Activity (% of control)” value (CDK2 (h) (cycE)) was 57.1 % of control, the “Activity (% of control)” value (CHK2 (h)) was 47.6 % of control and the “Activity (% of control)” value (EphB4 kinase (h)) was 89.7 % of control. The “Activity (% of control)” value (ERK2 (h) (P42mapk)) was 79.9 % of control, the “Activity (% of control)” value (FGFR4 kinase (h)) was 62.5 % of control and the “Activity (% of control)” value (FLT-3 kinase (h)) was 0.4 % of control. The “Activity (% of control)” value (Fyn kinase (h)) was 20.1 % of control, the “Activity (% of control)” value (IRK (h) (InsR)) was 46.7 % of control and the “Activity (% of control)” value (JNK 2 (h)) was 15.7 % of control. For the same molecule, the “Activity (% of control)” value (KDR kinase (h) (VEGFR2)) was 7.4 % of control, the “Activity (% of control)” value (Lck kinase (h)) was 7.1 % of control and the “Activity (% of control)” value (Lyn kinase (h)) was 7.2 % of control. For the same molecule, the “Activity (% of control)” value (MAPKAPK2 (h)) was 96.6 % of control, the “Activity (% of control)” value (MEK1/MAP2K1 (h)) was 81.5 % of control and the “Activity (% of control)” value (p38δ kinase (h)) was 96.0 % of control. For the same molecule, the “Activity (% of control)” value (PDGFRβ kinase (h)) was 1.8 % of control, the “Activity (% of control)” value (PKA (h)) was 80.0 % of control and the “Activity (% of control)” value (PKCα (h)) was 91.7 % of control. For the same molecule, the “Activity (% of control)” value (PKCγ (h)) was 94.1 % of control, the “Activity (% of control)” value (Ret kinase (h)) was 1.8 % of control and the “Activity (% of control)” value (ROCK2 (h)) was 103.3 % of control. For the same molecule, the “Activity (% of control)” value (RSK2 (h)) was 44.5 % of control, the “Activity (% of control)” value (Src kinase (h)) was 56.2 % of control and the “Activity (% of control)” value (Syk (h)) was 97.1 % of control. The “Activity (% of control)” value (TRKA (h)) was 0.8 % of control, the “effect on survival factor Mcl-1 expression” value [1] was “not down-regulated” and the “lowest concentration inducing PARP cleavage and p53 and p21 expression” value [1] was 0.1 µM. For the same molecule, the “time at which induction of PARP cleavage and p53 and p21 expression already takes place” value [1] was no more than 6 h, the “enhancement of kinase inhibitory activity relative to lamellarin D” value [2] was 10 fold and the IC50 (CDK5/p25) was 25 nM.
